Test results: patent US20240082342A1, “PEPTIDE THERAPEUTICS FOR INCREASING LUNG CELL VIABILITY” (BOARD OF REGENTS, THE UNIVERSITY OF TEXAS SYSTEM, priority 2018, published 2024)
“Also recorded” adds a separate entry of the source.

How the values were obtained:
[1] = test system: ATII cells and BALF of IL-17A treated mice; experiment: IL-17A-induced lung injury in mice; assay type: in vivo, mouse; conditions: for A2EC p53, PAI-1 and apoptosis: WT mice exposed to IL-17A
Experimental: IL-17A is induced in passive tobacco smoke (PTS) exposed lung injury. […] Further, IL-17A induced ^p15Sp53 was inhibited following treatment of mice CSP7 when compared with those treated with saline and control peptide. To further test whether IL-17A induced ^p15Sp53 alters PAI-1 expression and ATII apoptosis, ATII cells of IL-17A treated mice for PAI-1 and apoptotic markers were analyzed. IL-17A induced the expression of PAI-1 and cl.Cas-3, and inhibited Sirt-1 expression in ATII cells. […] In addition, CSP7 treatment found to inhibit serine phosphorylation of p53 by neutralizing elevated IL-17A due to PTS exposure.
To test the importance of miR-34a mediated deacetylation of p53 IL-17A or PTS induced lung injury, miR34a conditional knockout mice were treated with tamoxifen. miR34a conditional knockout mice treated with IL-17A (3 μg/mice) was administered with CSP7 and CP a day later. ATII cells isolated from these mice were screened for PAI-1, Sirt-1 and apoptotic markers. […] Further, CSP7 treatment had little effect in miR-34a^cKo mice since these mice resist IL-17A or PTS injury.

A2ECs treated with CSE = experiment: A2ECs exposed to cigarette smoke extract (CSE) in vitro; assay type: cell-based; conditions: primary A2ECs + CSE
Experimental: A2ECs were treated with PBS, CSP or its fragment, CSP7 or control peptide (CP), 2 h after exposure of cells to CSE. A2EC lysates were immunoblotted for acetylated/total p53 and active/total caspase-3 24 h after CSE exposure. β-actin levels were evaluated to assess equal loading.
To further confirm CSP7 mimics CSP effect, primary A2ECs were treated with cigarette smoke extract (CSE) prepared in PBS in the presence of CSP or CSP7. The A2ECs treated with CSE and CP or PBS alone were used as controls. The A2EC lysates were tested for acetylated and total p53, apoptosis and Sirt1 expression. CSE induced total and acetylated p53 while inhibiting Sirt1 expression in A2ECs indicating inhibition of Sirt1-mediated deacetylation of p53 contributes to induction of acetylated and total p53 and A2EC apoptosis.

[2] = test system: AECs from human nL exposed to CSE; experiment: Normal lung AECs exposed to TS/CS extract in vitro for 48 h; assay type: cell-based
Experimental: Primary Airway Epithelial Cells (AECs); Normal, Human (ATCC® PCS-301-010™) and Primary Airway Epithelial Cells; COPD (ATCC® PCS-301-013™) were obtained from the ATCC and cultured in Airway Cell Basal Medium with glutamine, Extract P, HLL Supplement, and AEC Supplement. containing and 1% penicillin-streptomycin. The cells were maintained at 37° C. in a humidified atmosphere at 5% CO2. All media, supplements, and antibiotics were purchased from ATCC.
Research cigarettes 2R4F were purchased from the Tobacco Health Research University of Kentucky (Lexington, KY). TSE extracts were prepared by burning research cigarettes in a side arm flask and the smoke generated was bubbled into phosphate-buffered saline at room temperature through an attached peristaltic pump as described earlier (Bhandary et al PloS One 10: e0123187, 2015) Tiwari et al. Am J Physiol Lung Cell Mol Physiol. 310:L496-506, 2016. An absorbance of 1.0 at 230 nm is considered 100%. TSE extract was filter sterilized by passing it through a 0.2-μm filter.
Preparation of CSE for the treatment of AECs in vitro. Research cigarettes 2R4F were purchased from the Tobacco Health Research, University of Kentucky (Lexington, KY). CSE were prepared by burning research cigarettes in a sidearm flask and the smoke generated was bubbled into phosphate-buffered saline (PBS) at room temperature through an attached peristaltic pump as described earlier (Shetty et al, 2012). An absorbance of 1.0 at 230 nm is considered 100%. CSE was filter sterilized by passing it through a 0.2-μm filter.
CSP7 inhibits MH and cilia dysfunction in AECs exposed to CS extract (CSE). To further confirm the above findings, AECs isolated from human nL were exposed to CSE in vitro for 48 h and analyzed for MUC5AC, HDAC6, FOXA2, FOXA3, SPDEF, acetylated alpha-tubulin, p53, PAI-1 and LC3. […] The changes at protein level allied with corresponding changes at the mRNA levels (FIG. 36B). […] CSE induced co-localization of MUC5AC and HDAC6, and acetylated alpha-tubulin and LC3 were inhibited following treatment with CSP7.

In the case of “DGIWKASFTTFTVTKYWFYR (listed as Homo sapiens) [CSP, 20 residue caveolin-1 scaffolding domain peptide]”, the “A2EC p53, PAI-1 and apoptosis” value [1] is reported as “reduced A2EC p53, PAI-1 and apoptosis in vivo” and the CSE-induced apoptosis (A2ECs treated with CSE) is reported as “inhibited CSE-induced apoptosis”.
For “FTTFTVT (listed as Homo sapiens) [CSP7, heptapeptide fragment of the caveolin-1 scaffolding domain peptide CSP]”, the “IL-17A induced serine phosphorylation of p53 (p15Sp53) in ATII cells” value ([1]; IL-17A treated mice, vs saline and control peptide) was “inhibited”, the “A2EC p53, PAI-1 and apoptosis” value [1] was “reduced A2EC p53, PAI-1 and apoptosis in vivo” and the “effect in miR-34a^cKO mice” value ([1]; miR34a conditional knockout mice treated with IL-17A) was “little effect”. The “BALF myeloperoxidase (MPO) activity” value ([1]; mice with IL-17A or PTS (10 weeks) injury) was “significantly reduced the MPO activity”, the “acetylated alpha-tubulin (immunofluorescence)” value ([2]; AECs + CSE) was “improved; also recorded: reversed with CSP7 treatment” and the “TS-induced MUC5A gene expression” value ([2]; bronchial epithelial cells) was “inhibited TS-induced MUC5A gene expression”. For the same substance, the Caveolin1 expression ([2]; nL AECs + TSE) was “reversed by CSP7”, the “MUC5AC, HDAC6, FOXA3, SPDEF and FOXA2 mRNA (qPCR)” value ([2]; nL AECs + TSE) was “reversed by CSP7 treatment” and the “autophagy protein markers (Western blot)” value ([2]; nL AECs + TSE) was “reversed by CSP7”. For the same substance, the “cilia length and number of ciliated cells” value ([2]; nL AECs + TSE/CSE) was “significantly improved; also recorded: significantly reversed”, the “co-localization of MUC5AC/HDAC6 and Ac-Tubulin/LC3” value ([2]; nL AECs + TSE/CSE) was “reversal of the co-localization; also recorded: inhibited” and the “MUC5AC, HDAC6, FOXA3, SPDEF, CAV1, p53, PAI-1, LC3, FOXA2, Ac-Tub proteins (Western blot)” value ([2]; nL AECs + TSE/CSE 48 h) was “reversed with CSP7 treatment”. The CSE-induced apoptosis (A2ECs treated with CSE) was “inhibited CSE-induced apoptosis”.
In the case of “WGIDKAFFTTSTVTYKWFRY [CP, scrambled control peptide with the same amino acid composition as CSP, reference compound]”, the “cilia length and number of ciliated cells” value ([2]; nL AECs + TSE/CSE) is reported as “failed to respond”.
